Measured values from patent publication US9233107B2, “Compositions and methods for the treatment of progressive multifocal leukoencephalopathy (PML)” (Biogen MA Inc., priority 2007, dated 2016).
Like-named read-outs stand apart in the source and are kept apart here.

What was measured:
Mad1/SVEΔ JCV = assay: JCV infection of primary human fetal astrocytes; type: cell-based, JC polyomavirus (JCV)
Description: CO2 incubator. […] The culture media is used for the infection.
FIG. 5A illustrates SVG-A cells with Mad1/SVEΔ JCV (n=12) virus. FIG. 5B illustrates primary human fetal astrocytes with Mad1/SVEΔ JCV.
Since during PML many cells are already infected with JC virus, in some embodiments a drug candidate for treatment of PML may be selected as one that can inhibit viral life cycle in already infected cells. […] In FIG. 7 various concentration of the drug were added to the culture of primary human fetal astrocytes infected with JC virus at the same time as virus (circles; T=0), 3 hours after virus addition (squires; T=3 h), or 24 hours after (triangles; T=24 h). Ten days after infection with the virus cells were fixed and number of virally infected cells was enumerated. Results of a representative experiment out of 4 different experiments with primary astrocytes or SVG-A cells are shown.

JCV strain Mad-4 = JCV strain Mad-4 infection of SVG-A cells; type: cell-based, JC polyomavirus (JCV); details: 5 independent experiments
SVG-A cells = assay: Total cell number (DAPI+ events) / cytotoxicity in the JCV infectivity assay; details: for inhibition at 10 µM: Homo sapiens, SVG-A, read-out: % Inhibition total Cell Number @10 uM
Description: (§1) SV40 transformed glial cells were seeded in 10% FBS media. The cells were seeded at 2000 cells per well in 75 μl of media per well. On day 2, the media was removed and replaced by 35 μl of a 1× concentrated drug aliquot combined with a 100× diluted JCV Turbo aliquot in 35 μl of 2% FBS media (JCV Turbo is a hybrid Mad-1/SVEΔ virus constructed by insertion of the regulatory region of SV40 into the regulatory region of the Mad-1 strain of JCV (Mad-1/SVE), Vacante et al., Virology 1989, 170: 353-361). The cells were incubated for an hour, after which another 65 uL aliquot of 1× concentrated drug in 2% FBS was added. On day 5 the cells were stained with DAPI (for total cell number) and with a mouse monoclonal antibody against SV40 VP1, which cross reacts with the JCV VP1 protein. […] The information is tabulated as % inhibition (as measured by the number and percentage of JCV positive cells).
(§2) JCV Infectivity Assay: SVG-A cells were seeded at 2,000 cells/well/0.075 ml of culture media in 96 flat-bottom well plate (Corning, N.Y.). The next day compounds were prepared in assay medium (2% heat-inactivated fetal bovine serum, 4 mM L-glutamine, 1×MEM). A master viral plate was prepared by mixing equal volumes of [2×] compound and [2×] diluted virus for the final 1× concentration of the compound and the virus. The plate containing cells was gently inverted and shaken to remove media. From the master plate, 0.035 ml compound/virus was added to designated wells. The cells were incubated with the compound/virus mixture for 60 minutes in a humidified 37° C. CO2 incubator. At that time final concentration of the drug in media was added to designated wells to bring the final volume up to 0.1 ml/well. The plates were incubated for an additional three days, the cells were then washed once with 1×PBS, and fixed in 2% paraformaldehyde/1×PBS for 30 minutes at room temperature. The fixative was removed and the cells were solubilized with 0.5% Triton X100 in PBS for an additional 30 minutes. Infection by Mad-1/SVEΔ virus was visualized by staining with PAB597, a monoclonal antibody against the major capsid protein VP1, the cells were incubated with 0.05 ml of PAB597 (2 μg/ml in 1×PBS) for 60 minutes at 37° C. Following a wash step with 1×PBS, primary antibody was detected with an Alexa-Fluor 488-labeled goat anti-mouse secondary antibody at 1:100 dilution in 1×PBS, cells were counterstained with DAPI at 1 μg/ml (0.05 ml/well) for 30 minutes at 37° C. Cells were washed with 1×PBS and 0.1 ml 1×PBS was added to cells. Field images of each well were acquired and analyzed using the Cellomics ArrayScan (Thermo Scientific Inc, Waltham, Mass.) using the Target Activation software. […] The cells are seeded at 4,000 cells/well/0.075 ml of culture media in 96 flat-bottom well plate (Corning). The culture media is used for the infection. The length of the infection is six to ten days (instead of the three days for SVG-A cells).
The primary assay employed an SVG-A cell line and JCV Mad1/SVEΔ viral strain.

[1] = published PK data, cited from earlier work
JCV DNA replication = JCV DNA replication by qPCR (TAg probe) in SVG-A cells; type: cell-based, JC polyomavirus (JCV); details: 3 days after infection, compared with infection rate inhibition
[2] = human, in vivo
Source text: The published literature was reviewed for information on pharmacokinetics and brain distribution of these drugs in humans and in animal models. Since JC virus uncontrollably replicates in the oligodendrocytes and astrocytes of the effected individuals during PML but not all drugs are capable of crossing blood brain barrier it would be advantageous for any potential PML therapy if the drug candidate is capable of achieving efficacious concentration in the brain.

JCV strain Mad1/SVEΔ = assay: microbe, parasite or virus in culture; type: cell-based, JC polyomavirus (JCV); details: for inhibition at 10 µM / IC50: JC polyomavirus
Description: as §1, §2
Calculations: The rate of JCV infection was calculated by normalizing the number of JCV infected cells by the total number of nucleated cells as % JCV^+ cells=((total # VP1^+ cells)/(total # DAPI^+ cells))*100%. The % of viral inhibition by a compound was calculated using a JCV infection rate instead of using total number of JCV infected cells (e.g., VP1^+ cells).

[3] = # animal data; published PK data; cited from earlier work
[4] = Glial cell, read-out: % Inhibition (total #JCV+) @10 uM
[5] = SVG-A, read-out: % Inhibition (% JCV+) @10 uM

Compound | inhibition of JCV infection of primary human fetal astrocytes, in words (Mad1/SVEΔ JCV; compared with SVG-A cells) | inhibition of cell infection when added 3 or 24 hours post infection, in words (Mad1/SVEΔ JCV; primary human fetal astrocytes, read ten days after infection) | inhibition of Mad4 infection of SVG-A cells, in words (JCV strain Mad-4) | inhibition at 10 µM (SVG-A cells) | Inhibition of total cell numbers (DAPI+ events) (SVG-A cells; at the drug concentrations of the dose response curves) | CC50 (SVG-A cells; human, 3 days) | Cmax ([1]; read-out: plasma Cmax) | percent of JCV DNA inhibition, in words (JCV DNA replication) | Brain concentration, approximated [2] | anti-JCV activity in presence of cerebrospinal fluid (CSF), in words (JCV strain Mad1/SVEΔ; FIG. 10) | inhibition at 10 µM (JCV strain Mad1/SVEΔ; [4]) | IC50 (JCV strain Mad1/SVEΔ; SVG-A) | inhibition at 10 µM (JCV strain Mad1/SVEΔ; [5]) | IC50 (JCV strain Mad1/SVEΔ; SVG-A, read-out: IC50 (in vitro efficacious concentration)) | plasma Cmax [1] | Brain [3]
OC(c1cc(C(F)(F)F)nc2c(C(F)(F)F)cccc12)C1CCCCN1 (racemic) [MEFLOQUINE, [2,8-bis(trifluoromethyl)quinolin-4-yl]-piperidin-2-ylmethanol] | essentially the same efficacy as it inhibits viral infection in SVG-A cells | just as effective at inhibiting cell infection as it was when added to the cells together with the virus | the same efficacy as Mad1/SVEΔ infection | 5% | less than 20% | 16.1 µM | 6 µM | almost overlaps the percent of infection rate inhibition | 35 to 50 µM | not inhibited by cerebrospinal fluid (CSF) | 66% | 4 µM | 64% | 3.9 ± 2.1 µM |  | 
Cc1cccc(Nc2ccccc2C(=O)O)c1C [MEFENAMIC ACID] |  |  |  | 0% |  |  |  |  |  |  | 29% | 10.9 µM | 29% |  | 10000 to 20000 ng/mL | 0.8 µg/mL
